The values that follow come from ChEMBL document CHEMBL1201862, “PubChem BioAssay data set” (2004).

Activity calls are given as the source filed them. For most assays here, no stated cut-off is given here; in the data, actives have a measured IC50 and inactives only a lower limit. Bounds are passed on as bounds.

Broadly, the IC50 is the midpoint of a concentration-inhibition curve. The AC50 is the concentration giving half of the maximal activity seen. By CC50 is commonly meant the concentration giving 50% cytotoxicity.

In assay [1] the test system is HEK293. The assay can be described thus: SAR Analysis of small molecule inhibitors of T-cell specific antigen receptor-induced NF-kB activation in a HEK-293T cell line using a luminescence assay - Set 2. [Related pubchem assays (depositor defined):AID435003, AID435012, AID489026]. In kind it is functional, cell-based. Particulars: Homo sapiens.
Assay [2] deals with Jurkat. Briefly: SAR Analysis of small molecule inhibitors of T-cell specific antigen receptor-induced NF-kB activation in a Jurkat cell line using a luminescence assay - Set 2. [Related pubchem assays (depositor defined):AID435003, AID435012, AID465]. In kind it is functional, cell-based. Particulars: Homo sapiens.
Assay [3] relates to HEK293. The assay can be described thus: HEK293T cell viability loss, resazurin readout – resazurin fluorescence, cytotoxicity control for NF-kB activator project, SAR follow-up (AID 493251). The assay is classed as functional, cell-based. The conditions noted are these: Homo sapiens. (Alamar Blue is a resazurin reagent that responds to reducing activity.)
Assay [4] deals with INS1. The assay can be described thus: INS-1E survival protection against cytokine death – cell-based, luminescence, retest, dose response (AID 449756).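 Further: cell death triggered by IL-1 beta plus TNF-alpha plus IFN-gamma mixture; protective hits raise ATP signal compared with cytokine alone wells.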 The assay is classed as functional. The conditions noted are these: Rattus norvegicus.
The test system of assay [5] is Vero. The assay can be described thus: viability of Vero cells under compound – cytotoxicity control for flavivirus capping enzyme inhibitors (AID 588742). The assay is classed as functional. Particulars: Chlorocebus sabaeus.
Assay [6] in a line: bead-based luminescence quenchers, dual-tagged ARNT – biochemical, AlphaScreen, cherry-pick, artefact control for ARNT-TACC3 interaction inhibitor project, dose response (AID 651705).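 Further: AlphaScreen bead proximity signal that flags compounds interfering with the detection technology; potency reflects signal decrease which marks the compound as an assay artifact.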 The assay is classed as functional. A general note: In Alpha technology, singlet oxygen from a donor bead excites a nearby acceptor bead.
For assay [7], the target named is T1, SUMO-activating enzyme (Homo sapiens, UniProt Q9UBT2). The assay can be described thus: blockers of SAE1/SAE2–UBC9 SUMO transfer – biochemical, HTRF, uHTS, primary screen (AID 2006). The assay is classed as protein-complex assay. A general note: In TR-FRET formats the signal depends on donor and acceptor labels being close together.
Assay [8] has as its target Eukaryotic translation initiation factor 4E (Mus musculus, UniProt P63073). Briefly: blockers of eIF4G binding by eIF4E – biochemical, TR-FRET, dose response (AID 855).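 Further: potency for disrupting eIF4E binding to eIF4GI seen as loss of FRET.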 In kind it is functional.
Assay [9] has as its target Albumin (Bos taurus, UniProt P02769). The assay can be described thus: Counterscreen for inhibitors of T-cell receptor (TCR)-CD3 interaction: Fluorescence-based biochemical high throughput dose response assay to identify inhibitors of T-cell receptor (TCR)-CD3 interaction using a TAMRA-labeled BSA probe. The assay is classed as functional.
In assay [10] the target is Genome polyprotein (dengue virus type 2, UniProt P29990). Briefly: flavivirus cap methylation enzyme inhibition – biochemical, confirmation dose response, primary screen (AID 588689). The assay is classed as functional.
For assay [11], the target named is T1, SUMO-activating enzyme. The assay can be described thus: blockers of UBC9-mediated SUMO conjugation – biochemical, AlphaScreen, SUMOylation inhibitor project, confirmation (AID 2018). The assay is classed as functional.
Assay [12] deals with T2, Sentrin-specific protease 8 (Homo sapiens, UniProt Q96LD8).
T2 sequence (Q96LD8 whole entry): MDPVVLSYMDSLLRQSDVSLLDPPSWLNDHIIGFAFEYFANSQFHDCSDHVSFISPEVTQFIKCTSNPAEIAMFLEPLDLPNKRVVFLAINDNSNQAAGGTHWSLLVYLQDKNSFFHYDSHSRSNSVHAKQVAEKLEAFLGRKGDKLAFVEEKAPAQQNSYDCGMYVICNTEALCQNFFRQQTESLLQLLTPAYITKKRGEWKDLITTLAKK
Briefly: inhibition of human SENP8 cleavage activity – biochemical, luminescence, SAR follow-up (AID 504501). In kind it is functional.

Assay [13] has as its target T3, Caspase-3 (Homo sapiens, UniProt P42574).
T3 sequence (P42574 whole entry): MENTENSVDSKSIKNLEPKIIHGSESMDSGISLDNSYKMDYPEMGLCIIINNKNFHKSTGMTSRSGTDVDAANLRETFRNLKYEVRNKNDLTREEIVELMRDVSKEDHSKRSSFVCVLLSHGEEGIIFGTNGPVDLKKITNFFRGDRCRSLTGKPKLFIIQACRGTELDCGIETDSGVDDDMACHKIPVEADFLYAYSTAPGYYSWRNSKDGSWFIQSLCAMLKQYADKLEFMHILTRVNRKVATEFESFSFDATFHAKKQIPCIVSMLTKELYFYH
Briefly: SAR Analysis of small molecule inhibitors of Sentrin-specific proteases (SENPs) using a Caspase-3 Selectivity assay. [Related pubchem assays (depositor defined):AID2540, AID2599, AID434973, AID489001]. In kind it is functional.

Assay [14] has as its target T4, Sentrin-specific protease 7 (Homo sapiens, UniProt Q9BQF6).
T4 sequence (Q9BQF6 whole entry): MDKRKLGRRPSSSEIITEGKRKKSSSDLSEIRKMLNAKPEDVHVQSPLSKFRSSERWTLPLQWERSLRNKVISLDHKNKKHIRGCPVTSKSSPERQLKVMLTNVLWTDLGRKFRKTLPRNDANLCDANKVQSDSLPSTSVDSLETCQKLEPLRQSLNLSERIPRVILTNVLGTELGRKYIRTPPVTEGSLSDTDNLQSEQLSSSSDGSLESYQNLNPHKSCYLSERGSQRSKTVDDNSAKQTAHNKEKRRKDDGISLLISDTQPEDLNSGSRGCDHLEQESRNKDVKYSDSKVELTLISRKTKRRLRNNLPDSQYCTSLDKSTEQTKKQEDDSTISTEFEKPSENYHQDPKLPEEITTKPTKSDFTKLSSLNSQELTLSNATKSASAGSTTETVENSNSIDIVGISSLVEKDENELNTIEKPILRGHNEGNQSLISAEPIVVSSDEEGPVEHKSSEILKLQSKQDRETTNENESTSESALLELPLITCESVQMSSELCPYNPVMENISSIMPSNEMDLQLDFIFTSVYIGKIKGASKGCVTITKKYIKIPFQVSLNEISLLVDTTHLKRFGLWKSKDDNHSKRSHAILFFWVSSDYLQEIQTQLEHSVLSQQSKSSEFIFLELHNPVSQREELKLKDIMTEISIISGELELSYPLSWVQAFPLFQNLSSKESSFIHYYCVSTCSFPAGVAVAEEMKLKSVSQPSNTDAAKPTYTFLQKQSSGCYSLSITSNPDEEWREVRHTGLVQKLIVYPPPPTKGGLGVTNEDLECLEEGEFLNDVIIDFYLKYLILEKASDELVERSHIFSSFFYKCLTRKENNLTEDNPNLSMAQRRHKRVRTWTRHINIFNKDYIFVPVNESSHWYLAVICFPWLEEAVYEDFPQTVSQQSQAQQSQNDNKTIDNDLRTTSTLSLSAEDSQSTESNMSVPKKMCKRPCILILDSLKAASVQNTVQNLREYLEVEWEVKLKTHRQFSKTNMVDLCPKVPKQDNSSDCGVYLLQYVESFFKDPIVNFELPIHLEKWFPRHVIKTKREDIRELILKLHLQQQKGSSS
The assay can be described thus: inhibition of human SENP7 cleavage activity – biochemical, luminescence, SAR follow-up (AID 504497). The assay is classed as functional.

Assay [15] has as its target T5, Sentrin-specific protease 6 (Homo sapiens, UniProt Q9GZR1).
T5 sequence (Q9GZR1 whole entry): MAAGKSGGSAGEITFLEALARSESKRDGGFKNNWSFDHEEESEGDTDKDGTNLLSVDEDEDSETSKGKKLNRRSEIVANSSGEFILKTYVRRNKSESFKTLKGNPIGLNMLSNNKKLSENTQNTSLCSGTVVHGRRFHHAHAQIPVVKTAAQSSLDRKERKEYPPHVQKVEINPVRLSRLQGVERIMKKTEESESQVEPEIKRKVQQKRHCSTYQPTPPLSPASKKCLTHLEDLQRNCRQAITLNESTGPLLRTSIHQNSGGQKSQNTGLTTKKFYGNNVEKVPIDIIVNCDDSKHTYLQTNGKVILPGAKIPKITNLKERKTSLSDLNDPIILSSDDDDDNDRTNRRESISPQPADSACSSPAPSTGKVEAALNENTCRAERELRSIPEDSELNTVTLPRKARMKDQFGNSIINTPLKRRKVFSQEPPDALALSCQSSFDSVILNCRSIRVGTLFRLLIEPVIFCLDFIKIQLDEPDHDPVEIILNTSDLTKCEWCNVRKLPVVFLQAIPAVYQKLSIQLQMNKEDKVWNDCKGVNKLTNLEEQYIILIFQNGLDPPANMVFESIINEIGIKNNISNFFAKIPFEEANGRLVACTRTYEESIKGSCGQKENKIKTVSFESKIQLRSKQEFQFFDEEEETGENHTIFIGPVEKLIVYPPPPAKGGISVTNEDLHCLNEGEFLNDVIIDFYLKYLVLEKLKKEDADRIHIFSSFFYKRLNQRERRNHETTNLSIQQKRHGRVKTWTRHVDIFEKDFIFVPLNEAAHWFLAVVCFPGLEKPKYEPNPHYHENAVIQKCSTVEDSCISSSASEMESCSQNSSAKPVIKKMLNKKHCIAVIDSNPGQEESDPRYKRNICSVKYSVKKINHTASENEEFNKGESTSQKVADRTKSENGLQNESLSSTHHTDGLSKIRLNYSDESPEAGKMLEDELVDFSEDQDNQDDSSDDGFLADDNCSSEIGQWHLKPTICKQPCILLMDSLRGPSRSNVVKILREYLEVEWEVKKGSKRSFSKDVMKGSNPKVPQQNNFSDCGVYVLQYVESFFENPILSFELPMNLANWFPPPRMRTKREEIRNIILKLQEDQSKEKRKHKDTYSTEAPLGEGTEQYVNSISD
The assay can be described thus: SAR Analysis of small molecule inhibitors of Sentrin-specific protease 6 (SENP6) using a Luminescent assay. [Related pubchem assays (depositor defined):AID2582, AID2599]. In kind it is functional.

The target of assay [16] is T5, Sentrin-specific protease 6. Briefly: inhibition of human SENP6 catalytic domain – biochemical, luminescence, set 2, SAR follow-up (AID 588598). In kind it is functional.
In assay [17] the target is T3, Caspase-3. The assay can be described thus: inhibition of recombinant caspase-3 activity – biochemical, luminescence, set 2, selectivity assay for SENP protease inhibitor project, SAR follow-up (AID 588599). In kind it is functional.
Assay [18] addresses T2, Sentrin-specific protease 8. Briefly: inhibition of sentrin protease 8 – biochemical, luminescence, set 2, SAR follow-up (AID 588601). In kind it is functional.
In assay [19] the target is T4, Sentrin-specific protease 7. Briefly: inhibition of human SENP7 cleavage activity – biochemical, luminescence, set 2, SAR follow-up (AID 588600). In kind it is functional.

T1 sequence (Q9UBE0 whole entry): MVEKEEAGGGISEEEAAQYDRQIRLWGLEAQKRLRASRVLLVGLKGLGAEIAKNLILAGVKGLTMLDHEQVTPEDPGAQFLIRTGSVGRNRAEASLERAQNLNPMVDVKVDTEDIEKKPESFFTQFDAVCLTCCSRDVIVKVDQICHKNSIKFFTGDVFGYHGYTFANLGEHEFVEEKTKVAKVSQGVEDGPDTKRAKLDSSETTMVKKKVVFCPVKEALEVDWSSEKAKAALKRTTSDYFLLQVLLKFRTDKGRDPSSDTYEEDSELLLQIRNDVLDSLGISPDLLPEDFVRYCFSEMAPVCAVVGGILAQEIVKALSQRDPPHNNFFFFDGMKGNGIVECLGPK
T1 sequence (Q9UBT2 whole entry): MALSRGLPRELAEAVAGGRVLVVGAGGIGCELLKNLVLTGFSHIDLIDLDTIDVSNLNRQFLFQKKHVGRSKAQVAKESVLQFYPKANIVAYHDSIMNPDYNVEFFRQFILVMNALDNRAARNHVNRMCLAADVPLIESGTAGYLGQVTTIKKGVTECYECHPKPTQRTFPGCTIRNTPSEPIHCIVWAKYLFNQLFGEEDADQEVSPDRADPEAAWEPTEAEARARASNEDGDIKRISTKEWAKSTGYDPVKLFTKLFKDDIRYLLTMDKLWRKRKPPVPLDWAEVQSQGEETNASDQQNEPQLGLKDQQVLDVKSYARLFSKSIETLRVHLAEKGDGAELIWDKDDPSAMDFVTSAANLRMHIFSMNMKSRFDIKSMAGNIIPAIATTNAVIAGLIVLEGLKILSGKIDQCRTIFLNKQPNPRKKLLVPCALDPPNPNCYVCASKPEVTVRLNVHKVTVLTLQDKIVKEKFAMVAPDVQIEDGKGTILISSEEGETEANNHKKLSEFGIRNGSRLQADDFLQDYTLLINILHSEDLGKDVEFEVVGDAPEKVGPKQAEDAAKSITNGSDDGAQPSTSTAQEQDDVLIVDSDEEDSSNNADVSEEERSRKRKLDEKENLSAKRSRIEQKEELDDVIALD
Chain of Eukaryotic translation initiation factor 4E (P63073 whole entry): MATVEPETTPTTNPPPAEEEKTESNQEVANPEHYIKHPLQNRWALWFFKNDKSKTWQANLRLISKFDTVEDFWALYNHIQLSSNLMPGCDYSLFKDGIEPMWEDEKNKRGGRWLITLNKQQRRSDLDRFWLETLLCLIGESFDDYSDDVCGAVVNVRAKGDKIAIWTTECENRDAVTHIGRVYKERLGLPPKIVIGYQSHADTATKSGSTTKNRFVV
Chain of Albumin (P02769 whole entry): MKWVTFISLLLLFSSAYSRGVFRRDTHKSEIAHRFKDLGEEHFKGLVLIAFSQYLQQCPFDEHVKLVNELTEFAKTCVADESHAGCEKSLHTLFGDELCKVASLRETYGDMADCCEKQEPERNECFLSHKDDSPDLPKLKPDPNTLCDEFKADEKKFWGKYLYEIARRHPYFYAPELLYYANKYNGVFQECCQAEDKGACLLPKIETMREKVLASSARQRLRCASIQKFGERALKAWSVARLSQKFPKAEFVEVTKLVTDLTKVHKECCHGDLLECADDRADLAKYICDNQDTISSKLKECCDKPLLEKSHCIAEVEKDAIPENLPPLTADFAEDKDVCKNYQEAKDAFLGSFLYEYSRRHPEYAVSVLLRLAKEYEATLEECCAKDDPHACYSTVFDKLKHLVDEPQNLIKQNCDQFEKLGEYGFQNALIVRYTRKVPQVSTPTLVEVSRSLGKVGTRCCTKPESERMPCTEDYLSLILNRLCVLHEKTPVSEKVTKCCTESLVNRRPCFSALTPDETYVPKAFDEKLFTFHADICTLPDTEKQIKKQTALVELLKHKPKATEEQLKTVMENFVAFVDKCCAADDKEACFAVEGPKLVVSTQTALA
Chain of Genome polyprotein (P29990 2492-3391 limits assumed): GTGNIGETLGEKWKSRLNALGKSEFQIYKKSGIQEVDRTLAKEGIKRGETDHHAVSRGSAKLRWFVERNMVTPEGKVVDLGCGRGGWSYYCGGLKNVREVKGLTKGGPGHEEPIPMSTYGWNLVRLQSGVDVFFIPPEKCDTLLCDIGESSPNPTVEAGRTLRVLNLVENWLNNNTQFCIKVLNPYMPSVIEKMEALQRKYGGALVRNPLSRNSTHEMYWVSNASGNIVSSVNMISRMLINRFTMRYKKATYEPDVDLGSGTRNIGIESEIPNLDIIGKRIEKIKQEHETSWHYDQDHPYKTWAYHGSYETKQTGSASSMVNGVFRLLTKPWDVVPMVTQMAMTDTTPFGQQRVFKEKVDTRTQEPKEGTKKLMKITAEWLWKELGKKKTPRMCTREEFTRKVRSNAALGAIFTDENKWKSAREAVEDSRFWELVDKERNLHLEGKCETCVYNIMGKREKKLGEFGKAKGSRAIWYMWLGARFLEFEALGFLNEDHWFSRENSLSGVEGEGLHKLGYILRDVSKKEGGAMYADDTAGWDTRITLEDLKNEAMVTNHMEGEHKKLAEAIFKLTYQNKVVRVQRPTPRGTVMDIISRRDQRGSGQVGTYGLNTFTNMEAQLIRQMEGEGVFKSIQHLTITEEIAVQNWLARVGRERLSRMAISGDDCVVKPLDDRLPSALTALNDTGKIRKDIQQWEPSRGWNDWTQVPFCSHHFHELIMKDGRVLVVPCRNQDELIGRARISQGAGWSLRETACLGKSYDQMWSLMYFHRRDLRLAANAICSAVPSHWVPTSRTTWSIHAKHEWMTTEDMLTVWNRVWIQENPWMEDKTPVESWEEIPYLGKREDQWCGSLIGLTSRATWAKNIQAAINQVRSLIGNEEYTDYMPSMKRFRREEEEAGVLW

Consider `CC(C)CC(=O)NC(c1ccccc1)c1ccc2cccnc2c1O` (centres undefined), for which the results for the half-inhibitory concentration (IC50) in assay [1], in assay [2] and in assay [3] were 7.19 µM (active), 4.18 µM (active) and 10.4 µM (active), respectively.
As to `Cc1ccccc1C(=O)Nc1cccc(C(=O)N/N=C/c2cc(Cl)cc([N+](=O)[O-])c2O)c1`, the AC50 in assay [4] is 7.14 µM (active); in assay [6], 95.3 µM (active). Also, the cytotoxic concentration (CC50) in assay [5] is 33 µM (active). The IC50 in assay [7] is > 100 µM (inactive); in [8], 50 µM (inactive); in assay [9], > 94.1 µM (inactive); in assay [10], > 100 µM (active); in [11] it was 6.22 µM (active).
As for `N#Cc1c(NC(=O)c2cc3ncc(Br)cn3n2)sc2c1CCCC2`, the IC50 in assay [12], in assay [13], in assay [14] and in [15] was > 99 µM (inactive) throughout.
Turning to `Cc1sc2ncnc(N3CCC(C(=O)Nc4nc5c(F)cc(F)cc5s4)CC3)c2c1C`, the IC50 in assay [16], in assay [17], in [18] and in assay [19] was > 99 µM (inactive) in each case.
